Measured values from patent US20230270676A1 (priority 2020, published 2023).

Key:
Assay type in all cases: cell-based, human
SW-480 cells [1] = assay: Transwell migration experiment (SW-480); settings: drug 15 μg/mL, 36 h, untreated group 100.0±11.7
Description: Each of the HCT116 and SW-480 cells in a logarithmic growth stage was taken and prepared into a suspension with a serum-free cell culture medium, counted, and diluted in folds, and a serum-free cell culture medium with the drug of 15 μg/mL was added. 200 μL of the suspension was inoculated into an upper chamber of a Transwell cell at a density of 1×10^5 cells/well, 500 μL of a 10% FBS-containing cell culture medium was added to a lower chamber of the Transwell cell, and the Transwell cell was incubated in a 5% CO2/37° C. incubator with saturated humidity for 36 h. The number of cells passing through the cell was counted, and cells in the upper chamber were gently wiped off with a cotton swab. Cells in the lower chamber were fixed with formaldehyde for 15 min, then stained with a 1% gentian violet staining solution for 30 min, and observed and counted under a microscope.

HCT116 cells [2] = assay: Apoptosis of tumor cells by flow cytometry (Annexin V-FITC/PI); settings: 48 h after administration, untreated group 16%
Description: 48 h after administration, a supernatant in each group was removed, the cells were washed with 1×PBS 3 times and then digested with EDTA-free trypsin for 2 min, and a 10% FBS-containing cell culture medium was added to stop the digestion. The resulting suspension was collected in a centrifuge tube and centrifuged at 1,000 rpm for 3 min, and resulting cells were washed twice with 1×PBS (4° C.) and resuspended in 400 μL of an Annexin V binding solution. 5 μL of an Annexin V-FITC staining solution was added, and the cells were incubated in the dark for 15 min. 10 μL of a PI staining solution was added, and the cells were incubated in the dark for 5 min. The cells were immediately tested by FC.

HCT116 cells [3] = assay: Plate cloning experiment for proliferation of tumor cells (HCT116); settings: untreated group 62.0±7.6
Description: (§1) Each of the HCT116 and SW-480 cells in a logarithmic growth phase was prepared into a suspension with a 10% FBS-containing cell culture medium, blown into single cells, counted, inoculated into a six-well plate at a density of 1×10^3 cells/well, and cultivated in a 5% CO2/37° C. incubator with saturated humidity until the cells were adherent to the wall. […] After the administration, the cells were often observed, and when clone spheres visible to the naked eye appeared, the cell cultivation was stopped, the supernatant was discarded, the cells were washed twice with PBS, and 1 mL of 4% paraformaldehyde (PFA) was added to conduct fixation for 20 min. The fixation solution was removed, the cells were washed 3 times with PBS, a 1% gentian violet staining solution was added to conduct staining for 30 min, and then the cells were slowly rinsed with running water to remove the staining solution, dried in an oven at 37° C., and photographed and counted. Colony-forming efficiency (CFE)=(number of cell clones/number of inoculated cells)×100%. […] The colony number was calculated for each group.

SW-480 cells [4] = assay: Plate cloning experiment for proliferation of tumor cells (SW-480); settings: untreated group 36.1±7.5
Description: as §1

CO[C@H]1C[C@@H]2CC[C@@H](C)[C@@](O)(O2)C(=O)C(=O)N2CCCC[C@H]2C(=O)O[C@H]([C@H](C)C[C@@H]2CC[C@@H](O)[C@H](OC)C2)CC(=O)[C@H](C)/C=C(\C)[C@@H](O)[C@@H](OC)C(=O)[C@H](C)C[C@H](C)/C=C/C=C/C=C/1C [free RAPA, rapamycin]
Percentage of cells passing through the cell (SW-480 cells [1]): 57.4±10.6% | Apoptosis rate (HCT116 cells [2]): 21% | Colony number (HCT116 cells [3]): 49.2±5.2 | Colony number (SW-480 cells [4]): 33.2±3.7
